Laboratory results: patent US7595401B2, “Therapeutic compounds and their use in cancer” (Myriad Pharmaceuticals, Inc., priority 2006, dated 2009)

The compounds below were run on purified human Hsp90 (assay: Binding Assay: fluorescence polarization with BODIPY-labeled geldanamycin). Conditions: 5 μM compound, BODIPY-GM 10 nM, Hsp90 30 nM.
Summary of the method: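 Compounds in 2% DMSO final compete with 10 nM BODIPY-GM for 30 nM purified human Hsp90, incubated overnight at room temperature in pH 7.3 HEPES buffer containing Na2MoO4 and DTT. Polarization (mP, ex/em 485/530) normalized to DMSO gives percent inhibition; autofluorescence-confounded data excluded.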

Row | % Inhibition at 5 μM Compound Concentration | SMILES
1 | 0% | COc1cc(CCn2cnc(N)c3nc(Sc4cc(OC)ccc4OC)nc2-3)cc(OC)c1 [Example 194, 3-[2-(3,5-dimethoxy-phenyl)-ethyl]-8-(2,5-dimethoxy-phenylsulfanyl)-3H-purin-6-ylamine]
2 | 18% | Nc1ncn(CCc2c(F)cccc2Cl)c2nc(Sc3cc4c(cc3Br)OCO4)nc1-2 [Example 131, 8-(6-bromo-benzo[1,3]dioxol-5-ylsulfanyl)-3-[2-(2-chloro-6-fluoro-phenyl)-ethyl]-3H-purin-6-ylamine]
3 | 0% | CC(C)(C)OC(=O)N1CCC[C@H](CCn2cnc(N)c3nc(Sc4cc5c(cc4Br)OCO5)nc2-3)C1 [Example 393, tert-Butyl (3R)-3-(2-{6-amino-8-[(6-bromo-1,3-benzodioxol-5-yl)thio]-3H-purin-3-yl}ethyl)piperidine-1-carboxylate]
4 | 25.0% | Cc1ncsc1CCn1cnc(N)c2nc(Sc3cc4c(cc3Br)OCO4)nc1-2 [Example 331, 8-[(6-Bromo-1,3-benzodioxol-5-yl)thio]-3-[2-(4-methyl-1,3-thiazol-5-yl)ethyl]-3H-purin-6-amine]
5 | 58% | Nc1ncnc2c1nc(Sc1cc3c(cc1Br)OCO3)n2CCc1cccc2ccccc12 [Example 157, 8-(6-Bromo-benzo[1,3]dioxol-5-ylsulfanyl)-9-(2-naphthalen-1-yl-ethyl)-9H-purin-6-ylamine]
6 | 0% | Nc1ncn(CC(c2ccccc2)C2CCCCC2)c2nc(Sc3cc4c(cc3Br)OCO4)nc1-2 (stereo not drawn) [Example 227, 8-[(6-Bromo-1,3-benzodioxol-5-yl)thio]-3-(2-cyclohexyl-2-phenylethyl)-3H-purin-6-amine]
7 | 0.00% | COc1c(F)cc(Sc2nc3c(N)ncn(CCC4CCN(C(C)=O)CC4)c-3n2)cc1Cl [Example 570, 3-[2-(1-Acetylpiperidin-4-yl)ethyl]-8-[(3-chloro-5-fluoro-4-methoxyphenyl)thio]-3 H-purin-6-amine]

Further lines, the compound ahead of its results:

Row | SMILES | % Inhibition at 5 μM Compound Concentration
8 | Nc1ncnc2c1nc(Sc1ccc3c(c1)OCO3)n2CCCn1cccc1 [Example 51, 8-(Benzo[1,3]dioxol-5-ylsulfanyl)-9-(3-pyrrol-1-yl-propyl)-9H-purin-6-ylamine] | 52%
9 | COc1ccc(OC)c(Sc2nc3c(N)ncnc3n2CCc2ccc(Br)cc2)c1 [Example 71, 9-[2-(4-Bromo-phenyl)-ethyl]-8-(2,5-dimethoxy-phenylsulfanyl)-9H-purin-6-ylamine] | 41%
10 | COc1ccc(OC)c(Sc2nc3c(N)ncn(CCC4CCCCC4)c-3n2)c1 [Example 170, 3-(2-cyclohexyl-ethyl)-8-(2,5-dimethoxy-phenylsulfanyl)-3H-purin-6-ylamine] | 3%

Same assay, conditions: BODIPY-GM 10 nM, Hsp90 30 nM

Row | IC50 | SMILES
11 | 240 nM | N#Cc1cc2c(cc1Sc1nc3c(N)ncnc3n1CCc1ccccc1)OCO2 [Example 320, 6-{[6-Amino-9-(2-phenylethyl)-9H-purin-8-yl]thio}-1,3-benzodioxole-5-carbonitrile]
12 | 450 nM | Nc1ncnc2c1nc(Sc1cc3c(cc1Br)OCO3)n2CCN1CCOC1=O [Example 586, 3-(2-{6-Amino-8-[(6-bromo-1,3-benzodioxol-5-yl)thio]-9 H-purin-9-yl}ethyl)-1,3-oxazolidin-2-one]
13 | 900 nM | COc1ccc(CCn2c(Sc3cc4c(cc3Br)OCO4)nc3c(N)ncnc32)cc1 [Example 250, 8-[(6-Bromo-1,3-benzodioxol-5-yl)thio]-9-[2-(4-methoxyphenyl)ethyl]-9H-purin-6-amine]
14 | 600 nM | Nc1ncnc2c1nc(Sc1cc3c(cc1Br)OCO3)n2CCc1cccc(I)c1 [Example 153, 8-(6-Bromo-benzo[1,3]dioxol-5-ylsulfanyl)-9-[2-(3-iodo-phenyl)-ethyl]-9H-purin-6-ylamine]
15 | 500 nM | Nc1ncnc2c1nc(Sc1cc3c(cc1Br)OCO3)n2CCc1cccc2ccccc12 [Example 157, 8-(6-Bromo-benzo[1,3]dioxol-5-ylsulfanyl)-9-(2-naphthalen-1-yl-ethyl)-9H-purin-6-ylamine]
16 | > 2500 nM | CN(C)c1ccc(CCn2c(Sc3cc4c(cc3Br)OCO4)nc3c(N)ncnc32)cc1 [Example 187, 8-(6-Bromo-benzo[1,3]dioxol-5-ylsulfanyl)-9-[2-(4-dimethylamino-phenyl)-ethyl]-9H-purin-6-ylamine]
17 | 3470 nM | COc1ccc(OC)c(Sc2nc3c(N)ncn(CCc4ccccc4)c-3n2)c1 [Example 2, 8-(2,5-dimethoxy-phenylsulfanyl)-3-phenethyl-3H-purin-6-ylamine]

Second part, the compound before the results:

Row | SMILES | IC50
18 | COc1ccc(OC)c(Sc2nc3c(N)ncnc3n2CCc2ccccc2O)c1 [Example 231, 2-(2-{6-Amino-8-[(2,5-dimethoxyphenyl)thio]-9H-purin-9-yl}ethyl)phenol] | > 25000 nM
19 | Nc1ncnc2c1nc(Sc1ccc3c(c1)OCO3)n2CCCn1cccc1 [Example 51, 8-(Benzo[1,3]dioxol-5-ylsulfanyl)-9-(3-pyrrol-1-yl-propyl)-9H-purin-6-ylamine] | 1500 nM
20 | COc1ccc(OC)c(Sc2nc3c(N)ncnc3n2CCc2ccc(O)cc2)c1 [Example 75, 4-{2-[6-Amino-8-(2,5-dimethoxy-phenylsulfanyl)-purin-9-yl]-ethyl}-phenol] | 2900 nM
21 | Nc1ncnc2c1nc(Sc1cc3c(cc1Br)OCO3)n2CCCC1CCCCN1 (stereo not drawn) [Example 646, 8-[(6-bromo-1,3-benzodioxol-5-yl)thio]-9-(3-piperidin-2-ylpropyl)-9H-purin-6-amine] | 60 nM
22 | COc1c(Sc2nc3c(N)ncnc3n2CCC2CCN(C=O)CC2)cc(C)c2c1CCC2 [Example 556, 4-(2-{6-Amino-8-[(4-methoxy-7-methyl-2,3-dihydro-1 H-inden-5-yl)thio]-9 H-purin-9-yl}ethyl)piperidine-1-carbaldehyde] | 2000 nM
23 | COc1ccc(OC)c(Sc2nc3c(N)ncnc3n2CCc2cc(F)cc(F)c2)c1 [Example 143, 9-[2-(3,5-Difluoro-phenyl)-ethyl]-8-(2,5-dimethoxy-phenylsulfanyl)-9H-purin-6-ylamine] | > 3000 nM
24 | Cc1cc(=O)oc2cc(Sc3nc4c(N)ncnc4n3CCC3CCN(C=O)CC3)ccc12 [Example 532, 4-(2-{6-Amino-8-[(4-methyl-2-oxo-2 H-chromen-7-yl)thio]-9 H-purin-9-yl}ethyl)piperidine-1-carbaldehyde] | 5000 nM
25 | COc1ccc(OC)c(Sc2nc3c(N)ncnc3n2CCc2ccc(Cl)cc2F)c1 [Example 97, 9-[2-(4-Chloro-2-fluoro-phenyl)-ethyl]-8-(2,5-dimethoxy-phenylsulfanyl)-9H-purin-6-ylamine] | 450 nM
26 | COc1ccc(OC)c(Sc2nc3c(N)ncnc3n2CCn2ccnc2)c1 [Example 335, 8-[(2,5-Dimethoxyphenyl)thio]-9-[2-(1H-imidazol-1-yl)ethyl]-9H-purin-6-amine] | 3000 nM
27 | COc1ccc(OC)c(Sc2nc3c(N)ncnc3n2CCc2ccc(Br)cc2)c1 [Example 71, 9-[2-(4-Bromo-phenyl)-ethyl]-8-(2,5-dimethoxy-phenylsulfanyl)-9H-purin-6-ylamine] | > 25000 nM
28 | CO[C@@H](C)C(=O)N1CCC(CCn2c(Sc3cc4c(cc3Br)OCO4)nc3c(N)ncnc32)CC1 [Example 724, 8-[(6-Bromo-1,3-benzodioxol-5-yl)thio]-9-(2-{1-[(2S)-2-methoxypropanoyl]piperidin-4-yl}ethyl)-9H-purin-6-amine] | 105 nM
29 | COc1ccc(OC)c(Sc2nc3c(N)ncnc3n2CCc2ccccc2F)c1 [Example 29, 8-(2,5-Dimethoxy-phenylsulfanyl)-9-[2-(2-fluoro-phenyl)-ethyl]-9H-purin-6-ylamine] | 150 nM
30 | CC(C)(C)OC(=O)N1CC[C@H]1C(=O)N1CCC(CCn2c(Sc3cc4c(cc3Br)OCO4)nc3c(N)ncnc32)CC1 [Example 728, tert-Butyl(2S)-2-{[4-(2-{6-amino-8-[(6-bromo-1,3-benzodioxol-5-yl)thio]-9H-purin-9-yl}ethyl)piperidin-1-yl]carbonyl}azetidine-1-carboxylate] | 200 nM
